Reference: ChEMBL document CHEMBL2069301, “Exploration of the structure-activity relationship of the diaryl anilide class of ligands for translocator protein--potential novel positron emitting tomography imaging agents” (Bioorg Med Chem Lett, 2012)

Columns and labels:
Rattus norvegicus [1] = assay: Biodistribution in naive Wistar rat whole brain at 1 to 3 MBq, iv using [18F] labeled compound measured 2 mins post dose; assay type: ADME, organism-based; details: in vivo
Striatum [2] = assay: Ratio of biodistribution in olfactory bulbs to striatum of in naive Wistar rat at 1 to 3 MBq, iv using [18F] labeled compound measured 30 mins post dose; assay type: ADME, organism-based; details: in vivo, 0.5 h
Striatum [3] = assay: Ratio of biodistribution in striatum at 2 mins post dose to biodistribution in striatum post 30 mins in naive Wistar rat at 1 to 3 MBq, iv using [18F] labeled compound; assay type: ADME, organism-based; details: in vivo
Brain = assay: Stability in naive Wistar rat brain assessed as parent compound level at 1 to 3 MBq, iv using [18F] labeled compound measured 60 mins post dose; assay type: ADME, organism-based; details: in vivo, 1 h
Rattus norvegicus [4] = assay: Biodistribution in naive Wistar rat olfactory bulbs at 1 to 3 MBq, iv using [18F] labeled compound measured 30 mins post dose; assay type: ADME, organism-based, Olfactory bulb; details: in vivo, 0.5 h
[5] = Lipophilicity, log D of the compound at pH 7.4; assay type: physicochemical; details: buffer
Translocator protein = Translocator protein (Rattus norvegicus, UniProt P16257); assay: Displacement of [3H]PK11195 from TSPO in Wistar rat heart incubated for 15 mins
[6] = Lipophilicity, log P of the compound by HPLC method; assay type: physicochemical

Sequence of Translocator protein (P16257 whole entry, looked up): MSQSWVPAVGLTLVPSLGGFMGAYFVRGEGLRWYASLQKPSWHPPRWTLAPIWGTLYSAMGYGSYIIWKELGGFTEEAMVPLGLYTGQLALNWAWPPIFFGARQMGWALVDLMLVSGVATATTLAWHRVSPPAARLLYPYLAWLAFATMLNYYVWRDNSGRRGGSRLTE

For `CCC(C)N([11CH3])C(=O)c1cc2ccccc2c(-c2ccccc2Cl)n1` (centres undefined), the Drug uptake (Rattus norvegicus [1]) was 0.28 % ID/g.
Molecule `COc1ccc(OC)c(CN(C(=O)CF)c2ccccc2OC2CCCC2)c1` has a Ratio (Striatum [2]) of 2.56, a Ratio (Striatum [3]) of 5.56 and a Stability (Brain) of 45%. For the same molecule, the Drug uptake (Rattus norvegicus [4]) was 0.23 % ID/g, the logD ([5]; read-out: logD) was 3.8 and the Ki (Translocator protein) was 0.46 nM. For the same molecule, the Drug uptake (Rattus norvegicus [1]) was 0.53 % ID/g.
`COc1ccccc1CN(C(=O)CF)c1ccccc1OC1CCCC1` gave a Ratio (Striatum [2]) of 3.23, a Ratio (Striatum [3]) of 5.46 and a Stability (Brain) of 62%. For the same molecule, the Drug uptake (Rattus norvegicus [4]) was 0.42 % ID/g, the logD ([5]; read-out: logD) was 2.35 and the Ki (Translocator protein) was 6.65 nM. It also gave a Drug uptake (Rattus norvegicus [1]) of 0.77 % ID/g.
`COc1ccc(OC)c(CN(C(=O)CF)c2ccccc2OC(C)C)c1` showed a logD ([5]; read-out: logD) of 2.62 and a Ki (Translocator protein) of 3.8 nM.
`COc1ccc(OC)c(CN(C(=O)CF)c2cc(F)ccc2OC(C)C)c1` gave a Ki (Translocator protein) of 9.84 nM.
`COc1ccc(OC)c(CN(C(=O)CF)c2ccccc2Sc2ccccc2)c1` gave a Ratio (Striatum [2]) of 1.88, a Ratio (Striatum [3]) of 6.22 and a Drug uptake (Rattus norvegicus [4]) of 0.17 % ID/g. The Ki (Translocator protein) was 4.48 nM and the Drug uptake (Rattus norvegicus [1]) was 0.61 % ID/g.
Work on `COc1ccc(OC)c(CN(C(=O)CF)c2ccccc2S(=O)(=O)c2ccccc2)c1` yielded a Ki (Translocator protein) of 3430 nM.
Work on `COc1ccc(OC)c(CN(C(=O)CF)c2cccc3cc(C)oc23)c1` yielded a Ratio (Striatum [2]) of 3.5, a Ratio (Striatum [3]) of 6.3 and a Stability (Brain) of 80%. It also gave a Drug uptake (Rattus norvegicus [4]) of 0.35 % ID/g, a Ki (Translocator protein) of 6.38 nM and a Drug uptake (Rattus norvegicus [1]) of 0.68 % ID/g.
Work on `CC(=O)N(Cc1ccccc1OCCF)c1cccnc1Oc1ccccc1` yielded a Ratio (Striatum [2]) of 3.08, a Ratio (Striatum [3]) of 2.85 and a Drug uptake (Rattus norvegicus [4]) of 0.4 % ID/g. It also gave a logD ([5]; read-out: logD) of 1.69 and a Drug uptake (Rattus norvegicus [1]) of 0.45 % ID/g.
Molecule `COc1ccc(OCCF)c(CN(C(C)=O)c2cccnc2Oc2ccccc2)c1` has a Ratio (Striatum [2]) of 5.2, a Ratio (Striatum [3]) of 4.4 and a Drug uptake (Rattus norvegicus [4]) of 0.26 % ID/g. It also gave a logD ([5]; read-out: logD) of 1.58, a Ki (Translocator protein) of 7.28 nM and a Drug uptake (Rattus norvegicus [1]) of 0.25 % ID/g.
`COc1ccccc1CN(C(=O)CF)c1cccnc1Oc1ccccc1` gave a Ratio (Striatum [2]) of 1.36, a Ratio (Striatum [3]) of 4.82 and a Drug uptake (Rattus norvegicus [4]) of 0.15 % ID/g. The logD ([5]; read-out: logD) was 1.51, the Ki (Translocator protein) was 125 nM and the Drug uptake (Rattus norvegicus [1]) was 0.55 % ID/g.
`COc1ccccc1CN(C(=O)CF)c1cnccc1Oc1ccccc1` gave a logP [6] of 2.72, a Stability (Brain) of 52% and a Ki (Translocator protein) of 2.18 nM.
For `COc1ccc(OC)c(CN(C(=O)CF)c2cc(F)ccc2Oc2ccccc2)c1`, the Ratio (Striatum [2]) was 2.06, the Ratio (Striatum [3]) was 1.71 and the Drug uptake (Rattus norvegicus [4]) was 0.7 % ID/g. For the same molecule, the logD ([5]; read-out: logD) was 2.06, the Ki (Translocator protein) was 0.05 nM and the Drug uptake (Rattus norvegicus [1]) was 0.73 % ID/g.
Molecule `COc1ccc(OC)c(CN(C(=O)CF)c2cncnc2Oc2ccccc2)c1` has a logP [6] of 2.79 and a Ki (Translocator protein) of 63 nM.
In the case of `COc1ncccc1CN(C(=O)CF)c1ccccc1Oc1ccccc1`, the Ratio (Striatum [2]) is reported as 2.54, the Ratio (Striatum [3]) is reported as 3.92 and the Drug uptake (Rattus norvegicus [4]) is reported as 0.33 % ID/g. It also gave a logD ([5]; read-out: logD) of 2.38 and a Drug uptake (Rattus norvegicus [1]) of 0.66 % ID/g.
`Cc1ccc(CN(C(=O)CF)c2ccccc2Oc2ccccc2)o1` showed a logD ([5]; read-out: logD) of 2.19 and a Ki (Translocator protein) of 72.1 nM.
Molecule `O=C(CF)N(Cc1cccs1)c1ccccc1Oc1ccccc1` has a logD ([5]; read-out: logD) of 1.98 and a Ki (Translocator protein) of 163 nM.
For `CC(=O)N(Cc1cccnc1OCCF)c1ccccc1Oc1ccccc1`, the logD ([5]; read-out: logD) was 2.6.
Work on `CC(=O)N(Cc1cccn(CCF)c1=O)c1ccccc1Oc1ccccc1` yielded a logD ([5]; read-out: logD) of 2.2 and a Ki (Translocator protein) of 105 nM.
`O=C(CF)N(Cc1cccc2c1OCC2)c1ccccc1Oc1ccccc1` gave a Ratio (Striatum [2]) of 2.52, a Ratio (Striatum [3]) of 2.52 and a Stability (Brain) of 91%. The Drug uptake (Rattus norvegicus [4]) was 0.68 % ID/g, the logD ([5]; read-out: logD) was 2.68 and the Ki (Translocator protein) was 0.31 nM. It also gave a Drug uptake (Rattus norvegicus [1]) of 0.81 % ID/g.
`COc1ncccc1CN(C(=O)CF)c1cc(F)ccc1Oc1ccccc1` gave a Ratio (Striatum [2]) of 2.78, a Ratio (Striatum [3]) of 4.39 and a Stability (Brain) of 72%. The Drug uptake (Rattus norvegicus [4]) was 0.5 % ID/g, the logD ([5]; read-out: logD) was 2.3 and the Ki (Translocator protein) was 3.52 nM. The Drug uptake (Rattus norvegicus [1]) was 0.84 % ID/g.
Molecule `O=C(CF)N(Cc1cccc2c1OCCO2)c1ccccc1Oc1ccccc1` has a Ratio (Striatum [2]) of 2.5, a Ratio (Striatum [3]) of 3.88 and a Stability (Brain) of 82%. For the same molecule, the Drug uptake (Rattus norvegicus [4]) was 0.4 % ID/g, the logD ([5]; read-out: logD) was 1.96 and the Ki (Translocator protein) was 1.14 nM. For the same molecule, the Drug uptake (Rattus norvegicus [1]) was 0.72 % ID/g.
`O=C(CF)N(Cc1cccc2c1OCO2)c1ccccc1Oc1ccccc1` gave a Ratio (Striatum [2]) of 2.85, a Ratio (Striatum [3]) of 4.77 and a Stability (Brain) of 92%. It also gave a Drug uptake (Rattus norvegicus [4]) of 0.37 % ID/g, a logD ([5]; read-out: logD) of 2.8 and a Ki (Translocator protein) of 2.03 nM. For the same molecule, the Drug uptake (Rattus norvegicus [1]) was 0.65 % ID/g.
Work on `CC1(C)Cc2cccc(CN(C(=O)CF)c3ccccc3Oc3ccccc3)c2O1` yielded a Ratio (Striatum [2]) of 1.53, a Ratio (Striatum [3]) of 3.8 and a Drug uptake (Rattus norvegicus [4]) of 0.23 % ID/g. It also gave a logD ([5]; read-out: logD) of 2.6, a Ki (Translocator protein) of 2.66 nM and a Drug uptake (Rattus norvegicus [1]) of 0.58 % ID/g.
`COc1ccc(OC)c(CN(C(=O)CF)c2ccccc2Oc2ccccc2)c1` showed a logD [5] of 2.36.
Work on `COc1ccc(OC)c(CN(C(=O)C[18F])c2ccccc2Oc2ccccc2)c1` yielded a Stability (Brain) of 91% and a Drug uptake (Rattus norvegicus [1]) of 0.74 % ID/g.
Molecule `COc1ccc(OC)c(CN(C(C)=O)c2cc(F)ccc2Oc2ccccc2)c1` has a Ki (Translocator protein) of 0.43 nM.
Work on `CCC(C)N(C)C(=O)c1cc2ccccc2c(-c2ccccc2Cl)n1` (centres undefined) [PK-11195] yielded a logD ([5]; read-out: logD) of 3.73.
